Laboratory results taken from the supplement of paper PMC10307832.

Key:
Assay in all cases: relative viability (nuclei count vs DMSO), 5 days (fraction); higher = more cells survive
NCI-H3122 = tested on: NCI-H3122
In short: (§1)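 Relative viability divides the nuclei count in treated wells by that in vehicle wells. Lung cancer cell lines were seeded in 1536-well plates, dosed by pin tool the next day, and fixed and stained after 5 days in one step with final 0.05% Triton X-100, 1% formaldehyde and 1 ug/ml Hoechst. Dosing was a single drug or a fixed anchor-drug dose plus five library-drug doses (not always all listed) in √10 steps, and values are medians of duplicate plates imaged at 4×.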

NCI-H2170 = tested on: NCI-H2170
In short: as §1

NCI-H1915 = tested on: NCI-H1915
In short: as §1

NCI-H2023 = tested on: NCI-H2023
In short: as §1

NCI-H1755 = tested on: NCI-H1755
In short: as §1

EMC-BAC-2 = tested on: EMC-BAC-2
In short: as §1

NCI-H727 = tested on: NCI-H727
In short: as §1

NCI-H358 = tested on: NCI-H358
In short: as §1

NCI-H650 = tested on: NCI-H650
In short: as §1

HCC-15 = tested on: HCC-15
In short: as §1

SW 1573 = tested on: SW 1573
In short: as §1

NCI-H2126 = tested on: NCI-H2126
In short: as §1

NCI-H1395 = tested on: NCI-H1395
In short: as §1

NCI-H1563 = tested on: NCI-H1563
In short: as §1

NCI-H1437 = tested on: NCI-H1437
In short: as §1

BEN = tested on: BEN
In short: as §1

LU99A = tested on: LU99A
In short: as §1

NCI-H1734 = tested on: NCI-H1734
In short: as §1

SW 900 = tested on: SW 900
In short: as §1

HOP-62 = tested on: HOP-62
In short: as §1

LC-2-ad = tested on: LC-2-ad
In short: as §1

HCC-44 = tested on: HCC-44
In short: as §1

`Cc1cn(-c2cc(NC(=O)c3ccc(C)c(Nc4nccc(-c5cccnc5)n4)c3)cc(C(F)(F)F)c2)cn1` [Nilotinib] + N=C(N)NC(=N)NCCc1ccccc1 [Phenformin] (partner 250 µM) gave a relative viability (NCI-H3122; first compound 0.001 µM) of 0.36, a relative viability (NCI-H3122; first compound 0.003162 µM) of 0.375 and a relative viability (NCI-H3122; first compound 0.01 µM) of 0.341. It also gave a relative viability (NCI-H3122; first compound 0.03162 µM) of 0.352, a relative viability (NCI-H3122; first compound 0.1 µM) of 0.309 and a relative viability (NCI-H2170; first compound 0.001 µM) of 0.408. The relative viability (NCI-H2170; first compound 0.003162 µM) was 0.432, the relative viability (NCI-H2170; first compound 0.01 µM) was 0.409 and the relative viability (NCI-H2170; first compound 0.03162 µM) was 0.394. For the same compound, the relative viability (NCI-H2170; first compound 0.1 µM) was 0.363, the relative viability (NCI-H1915; first compound 0.001 µM) was 0.372 and the relative viability (NCI-H1915; first compound 0.003162 µM) was 0.394. The relative viability (NCI-H1915; first compound 0.01 µM) was 0.413, the relative viability (NCI-H1915; first compound 0.03162 µM) was 0.372 and the relative viability (NCI-H1915; first compound 0.1 µM) was 0.381. For the same compound, the relative viability (NCI-H2023; first compound 0.001 µM) was 0.461, the relative viability (NCI-H2023; first compound 0.003162 µM) was 0.455 and the relative viability (NCI-H2023; first compound 0.01 µM) was 0.571. It also gave a relative viability (NCI-H2023; first compound 0.03162 µM) of 0.325, a relative viability (NCI-H2023; first compound 0.1 µM) of 0.361 and a relative viability (NCI-H1755; first compound 0.001 µM) of 0.589. It also gave a relative viability (NCI-H1755; first compound 0.003162 µM) of 0.616, a relative viability (NCI-H1755; first compound 0.01 µM) of 0.564 and a relative viability (NCI-H1755; first compound 0.03162 µM) of 0.534. The relative viability (NCI-H1755; first compound 0.1 µM) was 0.486, the relative viability (EMC-BAC-2; first compound 0.001 µM) was 0.474 and the relative viability (EMC-BAC-2; first compound 0.003162 µM) was 0.553. It also gave a relative viability (EMC-BAC-2; first compound 0.01 µM) of 0.491, a relative viability (EMC-BAC-2; first compound 0.03162 µM) of 0.44 and a relative viability (EMC-BAC-2; first compound 0.1 µM) of 0.484. It also gave a relative viability (NCI-H727; first compound 0.001 µM) of 0.579, a relative viability (NCI-H727; first compound 0.003162 µM) of 0.577 and a relative viability (NCI-H727; first compound 0.01 µM) of 0.419. It also gave a relative viability (NCI-H727; first compound 0.03162 µM) of 0.379, a relative viability (NCI-H727; first compound 0.1 µM) of 0.346 and a relative viability (NCI-H358; first compound 0.001 µM) of 0.317. For the same compound, the relative viability (NCI-H358; first compound 0.003162 µM) was 0.453, the relative viability (NCI-H358; first compound 0.01 µM) was 0.394 and the relative viability (NCI-H358; first compound 0.03162 µM) was 0.259. It also gave a relative viability (NCI-H358; first compound 0.1 µM) of 0.217, a relative viability (NCI-H650; first compound 0.001 µM) of 0.444 and a relative viability (NCI-H650; first compound 0.003162 µM) of 0.428. For the same compound, the relative viability (NCI-H650; first compound 0.01 µM) was 0.447, the relative viability (NCI-H650; first compound 0.03162 µM) was 0.38 and the relative viability (NCI-H650; first compound 0.1 µM) was 0.397. The relative viability (HCC-15; first compound 0.001 µM) was 0.436, the relative viability (HCC-15; first compound 0.003162 µM) was 0.598 and the relative viability (HCC-15; first compound 0.01 µM) was 0.508. It also gave a relative viability (HCC-15; first compound 0.03162 µM) of 0.331, a relative viability (HCC-15; first compound 0.1 µM) of 0.404 and a relative viability (SW 1573; first compound 0.001 µM) of 0.405. For the same compound, the relative viability (SW 1573; first compound 0.003162 µM) was 0.445, the relative viability (SW 1573; first compound 0.01 µM) was 0.412 and the relative viability (SW 1573; first compound 0.03162 µM) was 0.179. For the same compound, the relative viability (SW 1573; first compound 0.1 µM) was 0.289, the relative viability (NCI-H2126; first compound 0.001 µM) was 0.546 and the relative viability (NCI-H2126; first compound 0.003162 µM) was 0.535. For the same compound, the relative viability (NCI-H2126; first compound 0.01 µM) was 0.538, the relative viability (NCI-H2126; first compound 0.03162 µM) was 0.534 and the relative viability (NCI-H2126; first compound 0.1 µM) was 0.562. The relative viability (NCI-H1395; first compound 0.001 µM) was 0.453, the relative viability (NCI-H1395; first compound 0.003162 µM) was 0.403 and the relative viability (NCI-H1395; first compound 0.01 µM) was 0.49. The relative viability (NCI-H1395; first compound 0.03162 µM) was 0.43, the relative viability (NCI-H1395; first compound 0.1 µM) was 0.415 and the relative viability (NCI-H1563; first compound 0.001 µM) was 0.635. It also gave a relative viability (NCI-H1563; first compound 0.003162 µM) of 0.689, a relative viability (NCI-H1563; first compound 0.01 µM) of 0.609 and a relative viability (NCI-H1563; first compound 0.03162 µM) of 0.635. For the same compound, the relative viability (NCI-H1563; first compound 0.1 µM) was 0.61, the relative viability (NCI-H1437; first compound 0.001 µM) was 0.325 and the relative viability (NCI-H1437; first compound 0.003162 µM) was 0.335. For the same compound, the relative viability (NCI-H1437; first compound 0.01 µM) was 0.331, the relative viability (NCI-H1437; first compound 0.03162 µM) was 0.23 and the relative viability (NCI-H1437; first compound 0.1 µM) was 0.224. It also gave a relative viability (BEN; first compound 0.001 µM) of 0.264, a relative viability (BEN; first compound 0.003162 µM) of 0.292 and a relative viability (BEN; first compound 0.01 µM) of 0.237. The relative viability (BEN; first compound 0.03162 µM) was 0.259, the relative viability (BEN; first compound 0.1 µM) was 0.289 and the relative viability (LU99A; first compound 0.001 µM) was 0.697. For the same compound, the relative viability (LU99A; first compound 0.003162 µM) was 0.907, the relative viability (LU99A; first compound 0.01 µM) was 0.798 and the relative viability (LU99A; first compound 0.03162 µM) was 0.611. It also gave a relative viability (LU99A; first compound 0.1 µM) of 0.483, a relative viability (NCI-H1734; first compound 0.001 µM) of 0.359 and a relative viability (NCI-H1734; first compound 0.003162 µM) of 0.396. For the same compound, the relative viability (NCI-H1734; first compound 0.01 µM) was 0.368, the relative viability (NCI-H1734; first compound 0.03162 µM) was 0.27 and the relative viability (NCI-H1734; first compound 0.1 µM) was 0.3. The relative viability (SW 900; first compound 0.001 µM) was 0.605, the relative viability (SW 900; first compound 0.003162 µM) was 0.634 and the relative viability (SW 900; first compound 0.01 µM) was 0.612. For the same compound, the relative viability (SW 900; first compound 0.03162 µM) was 0.44, the relative viability (SW 900; first compound 0.1 µM) was 0.408 and the relative viability (HOP-62; first compound 0.001 µM) was 0.512. It also gave a relative viability (HOP-62; first compound 0.003162 µM) of 0.706, a relative viability (HOP-62; first compound 0.01 µM) of 0.771 and a relative viability (HOP-62; first compound 0.03162 µM) of 0.444. It also gave a relative viability (HOP-62; first compound 0.1 µM) of 0.441, a relative viability (LC-2-ad; first compound 0.001 µM) of 0.647 and a relative viability (LC-2-ad; first compound 0.003162 µM) of 0.659. The relative viability (LC-2-ad; first compound 0.01 µM) was 0.557, the relative viability (LC-2-ad; first compound 0.03162 µM) was 0.609 and the relative viability (LC-2-ad; first compound 0.1 µM) was 0.562. It also gave a relative viability (HCC-44; first compound 0.001 µM) of 0.154, a relative viability (HCC-44; first compound 0.003162 µM) of 0.145 and a relative viability (HCC-44; first compound 0.01 µM) of 0.186. The relative viability (HCC-44; first compound 0.03162 µM) was 0.179 and the relative viability (HCC-44; first compound 0.1 µM) was 0.166.
